The test system of one assay is L1.2hCCR5 cells. The assay can be described thus: Chemotaxis assay. It is filed as cell-based. The settings on record: Homo sapiens; Inhibition of RANTES stimulated chemotaxis. The source says:
The chemotaxis assay is a functional assay which measures the ability of a non-adherent cell line expressing human CCR5 receptor to migrate across a membrane in response to either test compounds or natural attractant ligand(s) (i.e., RANTES, MIP-1β). Generally, chemotaxis assays monitor the directional movement or migration of a suitable cell (such as a leukocyte (e.g., lymphocyte, eosinophil, basophil)) into or through a barrier (e.g., endothelium, a permeable filter membrane), toward, from a first surface of the barrier toward an opposite second surface containing attractant ligands. Membranes or filters provide convenient barriers to monitor the directional movement or migration of a suitable cell into or through a filter, toward increased levels of an attractant. In some assays, the membrane is coated with a substance to facilitate adhesion, such as ICAM-1, fibronectin or collagen. Such assays provide an in vitro approximation of leukocyte “homing”. […] The filter is then removed and the density of the cells that have migrated to the bottom wells is detected using CyQUANT^R cell proliferation assay kit (Invitrogen) and the Spectra MAX GeminiXS plate reader (Molecular Devices) according to the manufacturers' instructions. Using the fluorescence measurements the percent migration is determined by % migration=[1−(max−obs)/(max−min)]×100. […] This is calculated with Excel Fit.

For another assay, the target named is CCR5 (Homo sapiens, UniProt P51681). Kind of assay: Human CCR5 receptor-ligand binding assay (125I RANTES, CHO-Gα16-hCCR5 cells). The arrangement: expressed in transfected cells. The settings on record: specific 125I RANTES binding, CHO-Gα16-hCCR5 cells; read-out: IC50. The method, then:
The construct was transfected into CHO-Gα16 cells by using Fugene Reagent (Roche).
Adherent cells in […] tissue culture flask (ca. 90% confluent) were harvested using 1 mM EDTA in PBS (phosphate-buffered saline) without Ca^2+ and Mg^2+. Cells were washed twice with PBS containing no Ca^2+ and Mg^2+.
Eighty μl CHO-Gα16-hCCR5 (1×10^6/mL) cells were added to 96 well plates.
The compound dilutions were made in PBS, 1% BSA. Total reaction volume was 100 μl per well. The test compounds were added to the cells prior to the addition of radioligand.
After incubation, the cells were harvested onto GF/C filter plates using Packard cell harvester. Filters were pretreated with 0.3% PEI/0.2% BSA for 30 min. The filter plate was washed rapidly 5 times with 25 mM HEPES, 500 mM NaCl, 1 mM CaCl2 and 5 mM MgCl2 adjusted to pH 7.1. Plates were dried in oven (70° C.) for 20 min, added with 40 μl scintillation fluid and sealed with Packard TopSeal-A. Packard Top Count was used to measure of the radioactivity for 1 min per well.
Total binding was determined with control wells added with radioisotope and buffer and the non-specific binding was determined using an excess cold RANTES to some of the control wells. Specific binding was determined by subtracting the non-specific form total binding. […] IC50 values were determined using varying concentrations of the test ligand in triplicates and the data was analyzed using GraphPad Prism (GraphPad, San Diego, Calif.).

The term IC50 denotes the concentration at which inhibition is half-maximal.

SMILES strings stand for the structures.

Chain of CCR5 (P51681 whole entry): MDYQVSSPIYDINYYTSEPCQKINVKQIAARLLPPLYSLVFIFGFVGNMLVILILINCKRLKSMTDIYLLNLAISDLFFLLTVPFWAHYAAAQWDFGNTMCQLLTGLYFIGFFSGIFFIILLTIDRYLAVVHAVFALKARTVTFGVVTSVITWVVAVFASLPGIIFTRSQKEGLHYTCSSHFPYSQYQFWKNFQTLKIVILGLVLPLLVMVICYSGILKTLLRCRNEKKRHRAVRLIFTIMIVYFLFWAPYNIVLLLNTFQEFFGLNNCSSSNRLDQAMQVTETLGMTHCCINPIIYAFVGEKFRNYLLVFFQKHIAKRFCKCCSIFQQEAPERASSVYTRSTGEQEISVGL

Take `CCCCC1CN(C[C@H]2CC[C@@H](OC)CC2)C(=O)OC12CCN(C1(C)CCN(C(=O)c3c(C)ncnc3C)CC1)CC2` (relative stereo) [Compound I-2, 5-Butyl-9-[1-(4,6-dimethyl-pyrimidine-5-carbonyl)-4-methyl-piperidin-4-yl]-3-(cis-4-methoxy-cyclohexylmethyl)-1-oxa-3,9-diaza-spiro[5.5]undecan-2-one]: the half-inhibitory concentration (IC50) with L1.2hCCR5 cells was determined as 237 nM; on CCR5 it was 16.2 nM.

Values taken from US7625891B2, “Heterocylic antiviral compounds” (Roche Palo Alto LLC, priority 2007, dated 2009).
